Assay results as given in the NIST ThermoML archive (doi:10.1016/j.jct.2017.04.009).

Assay: xn = mol fraction of the nth substance listed
Details: Liquid, pressure decay method

Molecule `CC(F)(F)F` [1,1,1-trifluoroethane] + CCCCCCn1cc[n+](C)c1.F[B-](F)(F)F has a binary diffusion coefficient (303.2 K, 149.1 kPa, x1 = 0) of 7.7e-11 m2/s, a binary diffusion coefficient (313.2 K, 159.2 kPa, x1 = 0) of 1.15e-10 m2/s and a binary diffusion coefficient (323.2 K, 173.5 kPa, x1 = 0) of 1.89e-10 m2/s. For the same molecule, the binary diffusion coefficient (333.2 K, 187.6 kPa, x1 = 0) was 2.62e-10 m2/s and the binary diffusion coefficient (343.2 K, 189 kPa, x1 = 0) was 3.39e-10 m2/s.

Work on `CCF` [fluoroethane] + CCCCCC[n+]1ccn(C)c1.O=S(=O)([N-]S(=O)(=O)C(F)(F)F)C(F)(F)F yielded a binary diffusion coefficient (303.2 K, 90.2 kPa, x1 = 0) of 1.28e-10 m2/s, a binary diffusion coefficient (313.2 K, 91.1 kPa, x1 = 0) of 2.08e-10 m2/s and a binary diffusion coefficient (323.2 K, 93.4 kPa, x1 = 0) of 2.96e-10 m2/s. It also gave a binary diffusion coefficient (333.2 K, 93 kPa, x1 = 0) of 3.46e-10 m2/s and a binary diffusion coefficient (343.2 K, 92.5 kPa, x1 = 0) of 4.13e-10 m2/s.

`CC(F)(F)F` [1,1,1-trifluoroethane] + CCCCCC[n+]1ccn(C)c1.O=S(=O)([N-]S(=O)(=O)C(F)(F)F)C(F)(F)F showed a binary diffusion coefficient (303.2 K, 104 kPa, x1 = 0) of 1.84e-10 m2/s, a binary diffusion coefficient (313.2 K, 98.7 kPa, x1 = 0) of 2.4e-10 m2/s and a binary diffusion coefficient (323.2 K, 99.5 kPa, x1 = 0) of 3.35e-10 m2/s. For the same molecule, the binary diffusion coefficient (333.2 K, 102.6 kPa, x1 = 0) was 3.97e-10 m2/s and the binary diffusion coefficient (343.2 K, 99.7 kPa, x1 = 0) was 5.1e-10 m2/s.

With `CCCCCCn1cc[n+](C)c1.O=S(=O)([O-])C(F)(F)F` [1-hexyl-3-methylimidazolium trifluoromethanesulfonate] + C=C(F)C(F)(F)F the binary diffusion coefficient (303.2 K, 104.3 kPa, x2 = 0) was 1.46e-10 m2/s, the binary diffusion coefficient (313.2 K, 101.6 kPa, x2 = 0) was 2e-10 m2/s and the binary diffusion coefficient (323.2 K, 106.7 kPa, x2 = 0) was 2.66e-10 m2/s. It also gave a binary diffusion coefficient (333.2 K, 100.8 kPa, x2 = 0) of 3.76e-10 m2/s and a binary diffusion coefficient (343.2 K, 109 kPa, x2 = 0) of 4.97e-10 m2/s.

`CCCCCCn1cc[n+](C)c1.O=S(=O)([O-])C(F)(F)F` [1-hexyl-3-methylimidazolium trifluoromethanesulfonate] + FC(F)C(F)(F)F showed a binary diffusion coefficient (303.2 K, 97.2 kPa, x2 = 0) of 2.38e-10 m2/s, a binary diffusion coefficient (313.2 K, 98.5 kPa, x2 = 0) of 3.05e-10 m2/s and a binary diffusion coefficient (323.2 K, 99.1 kPa, x2 = 0) of 4.17e-10 m2/s. For the same molecule, the binary diffusion coefficient (333.2 K, 100.9 kPa, x2 = 0) was 5.25e-10 m2/s and the binary diffusion coefficient (343.2 K, 103.8 kPa, x2 = 0) was 6.19e-10 m2/s.

`CCCCCCn1cc[n+](C)c1.O=S(=O)([O-])C(F)(F)F` [1-hexyl-3-methylimidazolium trifluoromethanesulfonate] + CC(F)F showed a binary diffusion coefficient (303.2 K, 86.8 kPa, x2 = 0) of 1.48e-10 m2/s, a binary diffusion coefficient (313.2 K, 95.7 kPa, x2 = 0) of 2.13e-10 m2/s and a binary diffusion coefficient (323.2 K, 98 kPa, x2 = 0) of 2.82e-10 m2/s. For the same molecule, the binary diffusion coefficient (333.2 K, 101.9 kPa, x2 = 0) was 3.79e-10 m2/s and the binary diffusion coefficient (343.2 K, 99.1 kPa, x2 = 0) was 4.73e-10 m2/s.

Molecule `CCCCCCn1cc[n+](C)c1.O=S(=O)([O-])C(F)(F)F` [1-hexyl-3-methylimidazolium trifluoromethanesulfonate] + FCF has a binary diffusion coefficient (303.2 K, 98.2 kPa, x2 = 0) of 3.01e-10 m2/s, a binary diffusion coefficient (313.2 K, 102 kPa, x2 = 0) of 4.27e-10 m2/s and a binary diffusion coefficient (323.2 K, 99.3 kPa, x2 = 0) of 5.35e-10 m2/s. The binary diffusion coefficient (333.2 K, 100.2 kPa, x2 = 0) was 6.82e-10 m2/s and the binary diffusion coefficient (343.2 K, 100.4 kPa, x2 = 0) was 8.35e-10 m2/s.

For `CCCCCCn1cc[n+](C)c1.F[B-](F)(F)F` [1-hexyl-3-methylimidazolium tetrafluoroborate] + FCF, the binary diffusion coefficient (303.2 K, 95.7 kPa, x2 = 0) was 1.29e-10 m2/s, the binary diffusion coefficient (313.2 K, 102 kPa, x2 = 0) was 1.8e-10 m2/s and the binary diffusion coefficient (323.2 K, 99.1 kPa, x2 = 0) was 2.55e-10 m2/s. The binary diffusion coefficient (333.2 K, 103.5 kPa, x2 = 0) was 3.57e-10 m2/s and the binary diffusion coefficient (343.2 K, 99.9 kPa, x2 = 0) was 4.76e-10 m2/s.

In the case of `C=C(F)C(F)(F)F` [2,3,3,3-tetrafluoro-1-propene] + CCCCCC[n+]1ccn(C)c1.O=S(=O)([N-]S(=O)(=O)C(F)(F)F)C(F)(F)F, the binary diffusion coefficient (303.2 K, 96.7 kPa, x1 = 0) is reported as 1.39e-10 m2/s, the binary diffusion coefficient (313.2 K, 95.6 kPa, x1 = 0) is reported as 1.99e-10 m2/s and the binary diffusion coefficient (323.2 K, 97.7 kPa, x1 = 0) is reported as 2.75e-10 m2/s. For the same molecule, the binary diffusion coefficient (333.2 K, 98.3 kPa, x1 = 0) was 4.01e-10 m2/s and the binary diffusion coefficient (343.2 K, 102.9 kPa, x1 = 0) was 5.96e-10 m2/s.

In the case of `FC(F)C(F)(F)F` [pentafluoroethane] + CCCCCC[n+]1ccn(C)c1.O=S(=O)([N-]S(=O)(=O)C(F)(F)F)C(F)(F)F, the binary diffusion coefficient (303.2 K, 93.2 kPa, x1 = 0) is reported as 1.02e-10 m2/s, the binary diffusion coefficient (313.2 K, 94.5 kPa, x1 = 0) is reported as 1.48e-10 m2/s and the binary diffusion coefficient (323.2 K, 95.6 kPa, x1 = 0) is reported as 2.24e-10 m2/s. The binary diffusion coefficient (333.2 K, 95.7 kPa, x1 = 0) was 3.13e-10 m2/s and the binary diffusion coefficient (343.2 K, 100.2 kPa, x1 = 0) was 4.21e-10 m2/s.

`CCCCCC[n+]1ccn(C)c1.O=S(=O)([N-]S(=O)(=O)C(F)(F)F)C(F)(F)F` + O=C=O gave a binary diffusion coefficient (283.2 K, 91.5 kPa, x2 = 0) of 2.64e-10 m2/s, a binary diffusion coefficient (298.2 K, 99.7 kPa, x2 = 0) of 3.89e-10 m2/s and a binary diffusion coefficient (313.2 K, 103.4 kPa, x2 = 0) of 5.97e-10 m2/s.

Work on `FC(F)C(F)(F)F` [pentafluoroethane] + CCCCCCn1cc[n+](C)c1.F[B-](F)(F)F yielded a binary diffusion coefficient (303.2 K, 151.8 kPa, x1 = 0) of 6.3e-11 m2/s, a binary diffusion coefficient (313.2 K, 164 kPa, x1 = 0) of 1.24e-10 m2/s and a binary diffusion coefficient (323.2 K, 169.7 kPa, x1 = 0) of 2.16e-10 m2/s. The binary diffusion coefficient (333.2 K, 176.2 kPa, x1 = 0) was 2.95e-10 m2/s and the binary diffusion coefficient (343.2 K, 172.3 kPa, x1 = 0) was 3.66e-10 m2/s.

Molecule `CC(F)F` [1,1-difluoroethane] + CCCCCC[n+]1ccn(C)c1.O=S(=O)([N-]S(=O)(=O)C(F)(F)F)C(F)(F)F has a binary diffusion coefficient (303.2 K, 87.7 kPa, x1 = 0) of 9.9e-11 m2/s, a binary diffusion coefficient (313.2 K, 89.1 kPa, x1 = 0) of 1.41e-10 m2/s and a binary diffusion coefficient (323.2 K, 92.5 kPa, x1 = 0) of 2.02e-10 m2/s. It also gave a binary diffusion coefficient (333.2 K, 96.4 kPa, x1 = 0) of 2.61e-10 m2/s and a binary diffusion coefficient (343.2 K, 93.8 kPa, x1 = 0) of 3.16e-10 m2/s.

In the case of `C=C(F)C(F)(F)F` [2,3,3,3-tetrafluoro-1-propene] + CCCCCCn1cc[n+](C)c1.F[B-](F)(F)F, the binary diffusion coefficient (303.2 K, 158.3 kPa, x1 = 0) is reported as 6.9e-11 m2/s, the binary diffusion coefficient (313.2 K, 168.4 kPa, x1 = 0) is reported as 1.02e-10 m2/s and the binary diffusion coefficient (323.2 K, 170 kPa, x1 = 0) is reported as 1.59e-10 m2/s. The binary diffusion coefficient (333.2 K, 185.3 kPa, x1 = 0) was 2.47e-10 m2/s and the binary diffusion coefficient (343.2 K, 189 kPa, x1 = 0) was 3.59e-10 m2/s.

Molecule `CCF` [fluoroethane] + CCCCCCn1cc[n+](C)c1.F[B-](F)(F)F has a binary diffusion coefficient (303.2 K, 101 kPa, x1 = 0) of 1.23e-10 m2/s, a binary diffusion coefficient (313.2 K, 97.7 kPa, x1 = 0) of 1.91e-10 m2/s and a binary diffusion coefficient (323.2 K, 104.5 kPa, x1 = 0) of 2.54e-10 m2/s. The binary diffusion coefficient (333.2 K, 102.4 kPa, x1 = 0) was 3.36e-10 m2/s and the binary diffusion coefficient (343.2 K, 101.6 kPa, x1 = 0) was 4.2e-10 m2/s.

Work on `CC(F)F` [1,1-difluoroethane] + CCCCCCn1cc[n+](C)c1.F[B-](F)(F)F yielded a binary diffusion coefficient (303.2 K, 95.1 kPa, x1 = 0) of 7.4e-11 m2/s, a binary diffusion coefficient (313.2 K, 101.6 kPa, x1 = 0) of 1.07e-10 m2/s and a binary diffusion coefficient (323.2 K, 102 kPa, x1 = 0) of 1.59e-10 m2/s. The binary diffusion coefficient (333.2 K, 97.8 kPa, x1 = 0) was 2.07e-10 m2/s and the binary diffusion coefficient (343.2 K, 98.5 kPa, x1 = 0) was 2.56e-10 m2/s.

Work on `FCF` [difluoromethane] + CCCCCC[n+]1ccn(C)c1.O=S(=O)([N-]S(=O)(=O)C(F)(F)F)C(F)(F)F yielded a binary diffusion coefficient (303.2 K, 92.8 kPa, x1 = 0) of 1.55e-10 m2/s, a binary diffusion coefficient (313.2 K, 93.9 kPa, x1 = 0) of 2.15e-10 m2/s and a binary diffusion coefficient (323.2 K, 94.4 kPa, x1 = 0) of 2.77e-10 m2/s. It also gave a binary diffusion coefficient (333.2 K, 94.3 kPa, x1 = 0) of 3.68e-10 m2/s and a binary diffusion coefficient (343.2 K, 95.2 kPa, x1 = 0) of 4.78e-10 m2/s.

`CCCCCCn1cc[n+](C)c1.O=S(=O)([O-])C(F)(F)F` [1-hexyl-3-methylimidazolium trifluoromethanesulfonate] + CC(F)(F)F gave a binary diffusion coefficient (303.2 K, 97.3 kPa, x2 = 0) of 1.96e-10 m2/s, a binary diffusion coefficient (313.2 K, 110.5 kPa, x2 = 0) of 2.61e-10 m2/s and a binary diffusion coefficient (323.2 K, 105.4 kPa, x2 = 0) of 3.48e-10 m2/s. For the same molecule, the binary diffusion coefficient (333.2 K, 108.8 kPa, x2 = 0) was 4.58e-10 m2/s and the binary diffusion coefficient (343.2 K, 106.3 kPa, x2 = 0) was 6.13e-10 m2/s.
